{"source": "paper PMC12069442", "about": "(Frontiers in Pharmacology, 2025)", "key": {"CYP3A4.34": {"molecular_target": "CYP3A4.34 (Homo sapiens, UniProt P08684, I427V)", "sequence (P08684 whole entry I427V)": "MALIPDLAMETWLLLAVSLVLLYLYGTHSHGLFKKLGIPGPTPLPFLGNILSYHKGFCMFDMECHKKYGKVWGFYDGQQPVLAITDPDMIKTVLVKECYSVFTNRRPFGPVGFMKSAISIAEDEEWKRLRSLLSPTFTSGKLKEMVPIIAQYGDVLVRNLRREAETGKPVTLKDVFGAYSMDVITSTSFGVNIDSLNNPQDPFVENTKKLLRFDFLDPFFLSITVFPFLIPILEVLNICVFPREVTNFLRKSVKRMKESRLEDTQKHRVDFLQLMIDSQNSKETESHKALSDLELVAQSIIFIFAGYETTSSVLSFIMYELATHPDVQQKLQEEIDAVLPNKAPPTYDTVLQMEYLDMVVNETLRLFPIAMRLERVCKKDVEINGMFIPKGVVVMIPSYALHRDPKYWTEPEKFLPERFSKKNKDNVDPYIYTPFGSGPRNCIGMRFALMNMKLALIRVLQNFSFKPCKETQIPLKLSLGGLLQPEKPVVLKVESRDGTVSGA", "test": "Ziprasidone catalysis by recombinant CYP3A4.34", "details": "CYP3A4.34, CL = Vmax/Km", "procedure": "(§1) Following the incubation, 400 μL of ACN and 20 μL of IS were added to the mixture. The sample was then vortexed and centrifuged, and the resulting supernatant was collected for analysis via LC-MS/MS."}, "CYP3A4.24": {"molecular_target": "CYP3A4.24 (Homo sapiens, UniProt P08684, Q200H)", "sequence (P08684 whole entry Q200H)": "as the sequence (P08684 whole entry I427V) above, with Q200H, V427I counted along it", "test": "Ziprasidone catalysis by recombinant CYP3A4.24", "details": "CYP3A4.24, CL = Vmax/Km", "procedure": "as §1"}, "[1]": {"test": "Rat pharmacokinetic study of ziprasidone and ziprasidone sulfoxide with resveratrol or quercetin", "details": "male, Sprague-Dawley, plasma, po, 15 mg/kg, rats, n=6; for CL/F: CLz/F; for Vd/F: Vz/F; for half-life: t1/2z", "protocol": "To minimize potential confounding effects of hormonal fluctuations, this study exclusively utilized male Sprague-Dawley (SD) rats (340 ± 15 g) obtained from Vital River Laboratories (Beijing, China).\nFollowing a 7-day acclimatization period under controlled conditions (temperature: 20°C–25°C; humidity: 50%–65%; 12h/12 h light/dark cycle), 18 rats were fasted for 12 h (water ad libitum) and randomly divided into three treatment groups (n = 6 per group).\nSerial blood samples (50 μL) were collected at predetermined time points (0, 1, 2, 4, 6, 8, 10, 12, 24, and 48 h) and processed with 150 μL acetonitrile and 20 μL midazolam IS (500 ng/mL). After vortex-mixing (2 min) and centrifugation (10,075 × g, 10 min), the supernatant was subjected to LC-MS/MS analysis. […] Calibration curves were established over 1–1,000 ng/mL for both analytes, with samples processed identically to study specimens.\nEssential pharmacokinetic parameters were determined using a non-compartmental model through Drug and Statistics (DAS) software version 3.0. For the polymorphism experiment results, one-way ANOVA was performed in GraphPad Prism 8.0, while pharmacokinetic data were assessed using an unpaired t-test, with a p-value below 0.05 deemed statistically significant."}, "CYP3A4.13": {"molecular_target": "CYP3A4.13 (Homo sapiens, UniProt P08684, P416L)", "sequence (P08684 whole entry P416L)": "as the sequence (P08684 whole entry I427V) above, with P416L, V427I counted along it", "test": "Ziprasidone catalysis by recombinant CYP3A4.13", "procedure": "as §1"}, "CYP3A4.15": {"molecular_target": "CYP3A4.15 (Homo sapiens, UniProt P08684, R162Q)", "sequence (P08684 whole entry R162Q)": "as the sequence (P08684 whole entry I427V) above, with R162Q, V427I counted along it", "test": "Ziprasidone catalysis by recombinant CYP3A4.15", "procedure": "as §1"}, "CYP3A4.1": {"molecular_target": "CYP3A4.1 (Homo sapiens, UniProt P08684)", "sequence (P08684 whole entry)": "as the sequence (P08684 whole entry I427V) above, with V427I counted along it", "test": "Ziprasidone catalysis by recombinant CYP3A4.1", "procedure": "as §1"}, "CYP3A4.23": {"molecular_target": "CYP3A4.23 (Homo sapiens, UniProt P08684, R162W)", "sequence (P08684 whole entry R162W)": "as the sequence (P08684 whole entry I427V) above, with R162W, V427I counted along it", "test": "Ziprasidone catalysis by recombinant CYP3A4.23", "procedure": "as §1"}, "CYP3A4.18": {"molecular_target": "CYP3A4.18 (Homo sapiens, UniProt P08684, L293P)", "sequence (P08684 whole entry L293P)": "as the sequence (P08684 whole entry I427V) above, with L293P, V427I counted along it", "test": "Ziprasidone catalysis by recombinant CYP3A4.18", "procedure": "as §1"}, "CYP3A4.3": {"molecular_target": "CYP3A4.3 (Homo sapiens, UniProt P08684, M445T)", "sequence (P08684 whole entry M445T)": "as the sequence (P08684 whole entry I427V) above, with V427I, M445T counted along it", "test": "Ziprasidone catalysis by recombinant CYP3A4.3", "procedure": "as §1"}, "[2]": {"set-up": "method as in Beedham et al., 2003", "details": "humans; ref Beedham et al., 2003; cited from earlier work"}, "CYP3A4.16": {"molecular_target": "CYP3A4.16 (Homo sapiens, UniProt P08684, T185S)", "sequence (P08684 whole entry T185S)": "as the sequence (P08684 whole entry I427V) above, with T185S, V427I counted along it", "test": "Ziprasidone catalysis by recombinant CYP3A4.16", "details": "CYP3A4.16, CL = Vmax/Km", "procedure": "as §1"}, "CYP3A4.12": {"molecular_target": "CYP3A4.12 (Homo sapiens, UniProt P08684, L373F)", "sequence (P08684 whole entry L373F)": "as the sequence (P08684 whole entry I427V) above, with L373F, V427I counted along it", "test": "Ziprasidone catalysis by recombinant CYP3A4.12", "procedure": "as §1"}, "CYP3A4.14": {"molecular_target": "CYP3A4.14 (Homo sapiens, UniProt P08684, L15P)", "sequence (P08684 whole entry L15P)": "as the sequence (P08684 whole entry I427V) above, with L15P, V427I counted along it", "test": "Ziprasidone catalysis by recombinant CYP3A4.14", "procedure": "as §1"}, "CYP3A4.10": {"molecular_target": "CYP3A4.10 (Homo sapiens, UniProt P08684, D174H)", "sequence (P08684 whole entry D174H)": "as the sequence (P08684 whole entry I427V) above, with D174H, V427I counted along it", "test": "Ziprasidone catalysis by recombinant CYP3A4.10", "procedure": "as §1"}, "CYP3A4.33": {"molecular_target": "CYP3A4.33 (Homo sapiens, UniProt P08684, A370S)", "sequence (P08684 whole entry A370S)": "as the sequence (P08684 whole entry I427V) above, with A370S, V427I counted along it", "test": "Ziprasidone catalysis by recombinant CYP3A4.33", "details": "CYP3A4.33, CL = Vmax/Km", "procedure": "as §1"}, "CYP3A4.28": {"molecular_target": "CYP3A4.28 (Homo sapiens, UniProt P08684, L22V)", "sequence (P08684 whole entry L22V)": "as the sequence (P08684 whole entry I427V) above, with L22V, V427I counted along it", "test": "Ziprasidone catalysis by recombinant CYP3A4.28", "procedure": "as §1"}, "CYP3A4.8": {"molecular_target": "CYP3A4.8 (Homo sapiens, UniProt P08684, R130Q)", "sequence (P08684 whole entry R130Q)": "as the sequence (P08684 whole entry I427V) above, with R130Q, V427I counted along it", "test": "Ziprasidone catalysis by recombinant CYP3A4.8", "procedure": "as §1"}, "CYP3A4.5": {"molecular_target": "CYP3A4.5 (Homo sapiens, UniProt P08684, P218R)", "sequence (P08684 whole entry P218R)": "as the sequence (P08684 whole entry I427V) above, with P218R, V427I counted along it", "test": "Ziprasidone catalysis by recombinant CYP3A4.5", "procedure": "as §1"}, "CYP3A4.19": {"molecular_target": "CYP3A4.19 (Homo sapiens, UniProt P08684, P467S)", "sequence (P08684 whole entry P467S)": "as the sequence (P08684 whole entry I427V) above, with V427I, P467S counted along it", "test": "Ziprasidone catalysis by recombinant CYP3A4.19", "procedure": "as §1"}, "CYP3A4.31": {"molecular_target": "CYP3A4.31 (Homo sapiens, UniProt P08684, H324Q)", "sequence (P08684 whole entry H324Q)": "as the sequence (P08684 whole entry I427V) above, with H324Q, V427I counted along it", "test": "Ziprasidone catalysis by recombinant CYP3A4.31", "procedure": "as §1"}, "CYP3A4.9": {"molecular_target": "CYP3A4.9 (Homo sapiens, UniProt P08684, V170I)", "sequence (P08684 whole entry V170I)": "as the sequence (P08684 whole entry I427V) above, with V170I, V427I counted along it", "test": "Ziprasidone catalysis by recombinant CYP3A4.9", "procedure": "as §1"}, "CYP3A4.32": {"molecular_target": "CYP3A4.32 (Homo sapiens, UniProt P08684, I335T)", "sequence (P08684 whole entry I335T)": "as the sequence (P08684 whole entry I427V) above, with I335T, V427I counted along it", "test": "Ziprasidone catalysis by recombinant CYP3A4.32", "procedure": "as §1"}, "[3]": {"details": "ziprasidone 15 mg/kg oral + quercetin 50 mg/kg i.g."}, "[4]": {"details": "ziprasidone 15 mg/kg oral + resveratrol 50 mg/kg i.g."}, "[5]": {"details": "ziprasidone 15 mg/kg oral, control (corn oil)"}}, "data": [{"compound": "O=C1Cc2cc(CCN3CCN(c4nsc5ccccc45)CC3)c(Cl)cc2N1", "note": "[ziprasidone, Ziprasidone]", "values": [{"measurement": "CL", "setting": "CYP3A4.34", "value": "4.65 ± 0.66", "unit": "µL/min/pmol"}, {"measurement": "CL", "setting": "CYP3A4.24", "value": "3.46 ± 0.67", "unit": "µL/min/pmol"}, {"measurement": "AUC(0-t)", "setting": "[1]; [3]", "value": 9390, "unit": "ng·h/mL"}, {"measurement": "AUC(0-t)", "setting": "[1]; [4]", "value": 6760, "unit": "ng·h/mL"}, {"measurement": "AUC(0-t)", "setting": "[1]; [5]", "value": 6610, "unit": "ng·h/mL"}, {"measurement": "AUC(0-inf)", "setting": "[1]; [3]", "value": 9390, "unit": "ng·h/mL"}, {"measurement": "AUC(0-inf)", "setting": "[1]; [4]", "value": 6760, "unit": "ng·h/mL"}, {"measurement": "AUC(0-inf)", "setting": "[1]; [5]", "value": 6980, "unit": "ng·h/mL"}, {"measurement": "CL/F", "setting": "[1]; [3]", "value": 94.2, "unit": "mL/min/kg"}, {"measurement": "CL/F", "setting": "[1]; [4]", "value": 150, "unit": "mL/min/kg"}, {"measurement": "CL/F", "setting": "[1]; [5]", "value": 43.8, "unit": "mL/min/kg"}, {"measurement": "Cmax", "setting": "[1]; [3]", "value": 1620, "unit": "ng/mL"}, {"measurement": "Cmax", "setting": "[1]; [4]", "value": 1160, "unit": "ng/mL"}, {"measurement": "Cmax", "setting": "[1]; [5]", "value": "963 ± 367", "unit": "ng/mL"}, {"measurement": "Tmax", "setting": "[1]; [3]", "value": "4 ± 1.79", "unit": "h"}, {"measurement": "Tmax", "setting": "[1]; [4]", "value": "4.33 ± 2.66", "unit": "h"}, {"measurement": "Tmax", "setting": "[1]; [5]", "value": "4 ± 2.19", "unit": "h"}, {"measurement": "Vd/F", "setting": "[1]; [3]", "value": "33.3 ± 22.1", "unit": "L/kg"}, {"measurement": "Vd/F", "setting": "[1]; [4]", "value": "56.1 ± 42.7", "unit": "L/kg"}, {"measurement": "Vd/F", "setting": "[1]; [5]", "value": "24.3 ± 19.1", "unit": "L/kg"}, {"measurement": "half-life", "setting": "[1]; [3]", "value": "3.79 ± 2.11", "unit": "h"}, {"measurement": "half-life", "setting": "[1]; [4]", "value": "4.06 ± 1.52", "unit": "h"}, {"measurement": "half-life", "setting": "[1]; [5]", "value": "8.64 ± 10.8", "unit": "h"}, {"measurement": "CL", "setting": "CYP3A4.13; CYP3A4.13, CL = Vmax/Km", "value": "5.60 ± 0.90", "unit": "µL/min/pmol"}, {"measurement": "% of CYP3A4.1", "setting": "CYP3A4.13; CYP3A4.13, relative clearance", "value": "92.30 ± 14.84", "unit": "%"}, {"measurement": "CL", "setting": "CYP3A4.15; CYP3A4.15, CL = Vmax/Km", "value": "9.53 ± 1.38", "unit": "µL/min/pmol"}, {"measurement": "% of CYP3A4.1", "setting": "CYP3A4.15; CYP3A4.15, relative clearance", "value": "157.07 ± 22.67", "unit": "%"}, {"measurement": "CL", "setting": "CYP3A4.1; CYP3A4.1, CL = Vmax/Km", "value": "6.07 ± 1.19", "unit": "µL/min/pmol"}, {"measurement": "% of CYP3A4.1", "setting": "CYP3A4.1; CYP3A4.1, relative clearance", "value": "100.00 ± 19.66", "unit": "%"}, {"measurement": "CL", "setting": "CYP3A4.23; CYP3A4.23, CL = Vmax/Km", "value": "6.11 ± 0.83", "unit": "µL/min/pmol"}, {"measurement": "% of CYP3A4.1", "setting": "CYP3A4.23; CYP3A4.23, relative clearance", "value": "83.13 ± 11.26", "unit": "%"}, {"measurement": "CL", "setting": "CYP3A4.18; CYP3A4.18, CL = Vmax/Km", "value": "6.56 ± 1.12", "unit": "µL/min/pmol"}, {"measurement": "% of CYP3A4.1", "setting": "CYP3A4.18; CYP3A4.18, relative clearance", "value": "89.27 ± 15.28", "unit": "%"}, {"measurement": "CL", "setting": "CYP3A4.3; CYP3A4.3, CL = Vmax/Km", "value": "9.30 ± 0.85", "unit": "µL/min/pmol"}, {"measurement": "% of CYP3A4.1", "setting": "CYP3A4.3; CYP3A4.3, relative clearance", "value": "153.26 ± 14.08", "unit": "%"}, {"measurement": "administered dose excreted unchanged", "setting": "[2]", "value": "less than 5%"}, {"measurement": "CL", "setting": "CYP3A4.16", "value": "6.79 ± 1.26", "unit": "µL/min/pmol"}, {"measurement": "CL", "setting": "CYP3A4.12; CYP3A4.12, CL = Vmax/Km", "value": "5.72 ± 0.87", "unit": "µL/min/pmol"}, {"measurement": "% of CYP3A4.1", "setting": "CYP3A4.12; CYP3A4.12, relative clearance", "value": "94.29 ± 14.33", "unit": "%"}, {"measurement": "CL", "setting": "CYP3A4.14; CYP3A4.14, CL = Vmax/Km", "value": "6.64 ± 0.48", "unit": "µL/min/pmol"}, {"measurement": "% of CYP3A4.1", "setting": "CYP3A4.14; CYP3A4.14, relative clearance", "value": "109.41 ± 7.88", "unit": "%"}, {"measurement": "CL", "setting": "CYP3A4.10; CYP3A4.10, CL = Vmax/Km", "value": "4.52 ± 0.35", "unit": "µL/min/pmol"}, {"measurement": "% of CYP3A4.1", "setting": "CYP3A4.10; CYP3A4.10, relative clearance", "value": "74.60 ± 5.81", "unit": "%"}, {"measurement": "CL", "setting": "CYP3A4.33", "value": "14.74 ± 0.74", "unit": "µL/min/pmol"}, {"measurement": "CL", "setting": "CYP3A4.28; CYP3A4.28, CL = Vmax/Km", "value": "5.69 ± 1.01", "unit": "µL/min/pmol"}, {"measurement": "% of CYP3A4.1", "setting": "CYP3A4.28; CYP3A4.28, relative clearance", "value": "77.40 ± 13.81", "unit": "%"}, {"measurement": "CL", "setting": "CYP3A4.8; CYP3A4.8, CL = Vmax/Km", "value": "5.71 ± 0.42", "unit": "µL/min/pmol"}, {"measurement": "% of CYP3A4.1", "setting": "CYP3A4.8; CYP3A4.8, relative clearance", "value": "94.14 ± 6.86", "unit": "%"}, {"measurement": "CL", "setting": "CYP3A4.5; CYP3A4.5, CL = Vmax/Km", "value": "4.65 ± 0.52", "unit": "µL/min/pmol"}, {"measurement": "% of CYP3A4.1", "setting": "CYP3A4.5; CYP3A4.5, relative clearance", "value": "76.73 ± 8.59", "unit": "%"}, {"measurement": "CL", "setting": "CYP3A4.19; CYP3A4.19, CL = Vmax/Km", "value": "6.19 ± 0.53", "unit": "µL/min/pmol"}, {"measurement": "% of CYP3A4.1", "setting": "CYP3A4.19; CYP3A4.19, relative clearance", "value": "84.26 ± 7.20", "unit": "%"}, {"measurement": "CL", "setting": "CYP3A4.31; CYP3A4.31, CL = Vmax/Km", "value": "4.08 ± 0.83", "unit": "µL/min/pmol"}, {"measurement": "% of CYP3A4.1", "setting": "CYP3A4.31; CYP3A4.31, relative clearance", "value": "55.46 ± 11.30", "unit": "%"}, {"measurement": "CL", "setting": "CYP3A4.9; CYP3A4.9, CL = Vmax/Km", "value": "7.92 ± 0.36", "unit": "µL/min/pmol"}, {"measurement": "% of CYP3A4.1", "setting": "CYP3A4.9; CYP3A4.9, relative clearance", "value": "130.65 ± 6.00", "unit": "%"}, {"measurement": "CL", "setting": "CYP3A4.32; CYP3A4.32, CL = Vmax/Km", "value": "7.66 ± 1.55", "unit": "µL/min/pmol"}, {"measurement": "% of CYP3A4.1", "setting": "CYP3A4.32; CYP3A4.32, relative clearance", "value": "104.25 ± 21.13", "unit": "%"}]}]}
